Source: PMC5478271, “Chemical structure-guided design of dynapyrazoles, cell-permeable dynein inhibitors with a unique mode of action” (eLife, 2017)

Legend:
[1] = biological target: T1, GFP-dynein 1 (Homo sapiens, UniProt Q14204); experiment: Basal ATPase activity of GFP-dynein 1; assay type: biochemical; settings: 40 µM compound, 1 mM MgATP, 2% DMSO; control 0.62 ± 0.2 s^−1
T1 construct: (AA 1320–4646 with additional valine [at position 4647], uniprot Q14204); protein A tag (followed by TEV-cleavable linker) (N, cleaved yes); made in house; host or cells: insect cells (baculovirus)
Procedure: (§1) ATPase assays using recombinant Dynein 1 (wild-type and mutants) were performed in a buffer containing 25 mM PIPES pH7.0, 30 mM KCl, 1 mM EGTA, 5 mM MgCl2, 0.01% triton X-100, 1 mM DTT, and 20–30 µM taxol (if microtubules were present). For typical conditions, enzyme was incubated with varying concentrations of inhibitor in buffer containing 2% DMSO for 10 min in a volume of 10 μL. When microtubules were present, they were polymerized by stepwise addition of taxol and high concentrations of DMSO (30% final during polymerization reactions), and re-suspended following centrifugation in ATPase buffer to a concentration up to threefold above the final concentration used in the reaction (bovine brain tubulin, no fluoresecent label). For microtubule-stimulated reactions in dose-response format, reactions were assembled by 1:1:1 mixture of 3x enzyme stock, 3x compound stock (in buffer with 6% DMSO), and 3x microtubule stock to each well. For microtubule-stimulated ATPase assays at tubulin concentrations > 2.5 µM, enzyme stock was supplemented with compound stock in pure DMSO (resulting in an intermediate DMSO concentration of 6%), and then the microtubule stock was added. […]
(§2) Assembled reaction mixtures (including enzyme, compound, and microtubules, if present) were incubated for 10 min before addition of ATP. […] The fraction of γ-phosphate hydrolyzed in each condition was quantified using FIJI.

[2] = biological target: T2, His-dynein 1 (Homo sapiens, UniProt Q14204); experiment: Microtubule-stimulated ATPase activity of His-dynein 1; assay type: biochemical; settings: 1 mM MgATP
T2 construct: (wild-type, K1912A, K2601A, AA 1320–4646, uniprot: Q14204); made in house; host or cells: Sf9 insect cells (baculovirus)
Procedure: ATPase assays using recombinant Dynein 1 (wild-type and mutants) were performed in a buffer containing 25 mM PIPES pH7.0, 30 mM KCl, 1 mM EGTA, 5 mM MgCl2, 0.01% triton X-100, 1 mM DTT, and 20–30 µM taxol (if microtubules were present). For typical conditions, enzyme was incubated with varying concentrations of inhibitor in buffer containing 2% DMSO for 10 min in a volume of 10 μL. When microtubules were present, they were polymerized by stepwise addition of taxol and high concentrations of DMSO (30% final during polymerization reactions), and re-suspended following centrifugation in ATPase buffer to a concentration up to threefold above the final concentration used in the reaction (bovine brain tubulin, no fluoresecent label). For microtubule-stimulated reactions in dose-response format, reactions were assembled by 1:1:1 mixture of 3x enzyme stock, 3x compound stock (in buffer with 6% DMSO), and 3x microtubule stock to each well. For microtubule-stimulated ATPase assays at tubulin concentrations > 2.5 µM, enzyme stock was supplemented with compound stock in pure DMSO (resulting in an intermediate DMSO concentration of 6%), and then the microtubule stock was added. Final enzyme concentrations were 30–100 nM for GFP-dynein 1, wild-type 6x-His-dynein 1, and K2601A 6x-His-dynein 1 and up to 500 nM for K1912A 6x-His-dynein 1. The final DMSO concentration was 2% in all ATPase assays performed.
Assembled reaction mixtures (including enzyme, compound, and microtubules, if present) were incubated for 10 min before addition of ATP. Each ATPase reaction was initiated by addition of 2 μL of a 6x ATP stock containing trace γ-^32P ATP (3 µCi/mmol, 3 µCi/mL, Perkin Elmer) and allowed to proceed for a time predetermined to lie within the linear range of the assay (20–30 min). For typical conditions, ATP was used at a final concentration of 1 mM. Reactions were quenched by the addition of 12 µL 100 mM EDTA, and 2 μL of each quenched reaction was spotted onto PEI-cellulose TLC plates (Millipore). Plates were developed in a glass chamber with a freshly prepared solution of 150 mM formic acid and 150 mM LiCl, dried, exposed to a storage phosphor tray (GE Healthsciences), and scanned on a Typhoon imaging system (GE Healthsciences). The fraction of γ-phosphate hydrolyzed in each condition was quantified using FIJI.
Curve fitting: Where dose-response experiments are fit and IC50values given, these are obtained as follows: Individual experiments are treated as separate. […]

[3] = system: Gli-driven luciferase reporter in NIH-3T3 (Shh-Light2) cells; experiment: Hedgehog pathway activity, Gli-driven luciferase reporter (Shh-Light2 cells, SAG-stimulated); assay type: cell-based; settings: for Concentration at which cell death was observed: 28 hr time course, ~10-fold above the IC50; for IC50: Shh Light2, SAG 500 nM, low serum (0.5% BCS), 28–32 hr, read-out: IC50, inhibition of Gli-driven luciferase reporter expression
Text: We next examined the inhibition of dynein 2 by dynapyrazole-A in cell-based assays. In cell culture, serum starvation results in the formation of primary cilia, which are required for Hedgehog signaling ([Goetz and Anderson, 2010]). Quiescent cells respond to the Hedgehog ligand or to a synthetic agonist and pathway activity can be measured using a Gli-driven luciferase reporter ([Taipale et al., 2000]; [Chen et al., 2002]). Expression of Hedgehog-driven luciferase reporter was inhibited by dynapyrazole-A (Compound 8, IC50: 1.9 ± 0.6 µM) ~8 fold more potently than ciliobrevin D (IC50: 15.5 ± 3 µM, Figure 3I). […] In this assay, we have also observed cell death at high ciliobrevin D concentrations (200 µM,~10x above its IC50). To stimulate Hedgehog pathway activity, we used the synthetic agonist of smoothened (SAG) ([Chen et al., 2002]), which competes with many known Hedgehog pathway inhibitors for binding to Smoothened, a key protein in this signaling pathway ([Sharpe et al., 2015]). As dynapyrazole-A inhibits Hedgehog signaling at high SAG concentrations (500 nM), it is likely to act downstream of Smoothened, as was previously noted for ciliobrevins and consistent with inhibition of dynein 2 ([Hyman et al., 2009]; [Firestone et al., 2012]).
NIH-3T3 cells stably expressing a luciferase reporter downstream of a Gli binding site (Shh-Light2 cells, RRID: CVCL_2721) were maintained in DMEM with 10% bovine calf serum (BCS). Cells were seeded at a density of 30,000 cells/well in 96-well tissue culture-treated plates (Corning, cat #353072) in 100 μL in DMEM +10% BCS, and incubated for 48 hr ([Taipale et al., 2000]). Wells were washed briefly with PBS. Next 100 μL of low serum media (DMEM +0.5% BCS) containing smoothened agonist (SAG, 500nM), and either solvent control (0.2% DMSO) or test compound (serial threefold dilutions of each inhibitor starting from 20 μM) were added to the wells. After 28–32 hr of inhibitor treatment, cells were washed with 50 μL PBS and lysed for >30 min in 30 μL Passive Lysis Buffer (Promega Dual Luciferase kit, cat E1910). 5 μL of each lysate was transferred to white, solid-bottom 96-well plates (Greiner, cat #655075), followed by rapid addition (within 30 s) of 30 μL of Luciferase Assay Reagent using a multichannel pipette. Luminescence for each condition was read using a Synergy Neo plate reader (5 s integration time per well). Cell line identity was confirmed by measurement of the degree of response to Hedgehog pathway stimulation by the synthetic agonist SAG and using previously-published values from our groups and others as references ([Firestone et al., 2012]; [Hyman et al., 2009]).
Curve fitting: Where dose-response experiments are fit and IC50values given, these are obtained as follows: Individual experiments are treated as separate. The data are fit to a sigmoidal dose-response curve of the form (Y=Bottom + (Top-Bottom)/(1 + 10^((LogIC50-X)*HillSlope)). All variables were allowed to float freely with the exception of the variable denoted ‘bottom’, which was constrained to be >0. The separate IC50 values obtained from fits to each individual experiment's dataset were averaged together and presented as a mean with range (Figure 3G and H) or standard deviation (Figures 3I, 5D, 6E and K).

[4] = biological target: T2, His-dynein 1; experiment: Basal ATPase activity of His-dynein 1 (wild-type); assay type: biochemical; settings: 40 µM compound, 1 mM MgATP, 2% DMSO; control 0.66 ± 0.1 s^−1
Procedure: as §1, §2

T2 sequence (Q14204 1320-4646): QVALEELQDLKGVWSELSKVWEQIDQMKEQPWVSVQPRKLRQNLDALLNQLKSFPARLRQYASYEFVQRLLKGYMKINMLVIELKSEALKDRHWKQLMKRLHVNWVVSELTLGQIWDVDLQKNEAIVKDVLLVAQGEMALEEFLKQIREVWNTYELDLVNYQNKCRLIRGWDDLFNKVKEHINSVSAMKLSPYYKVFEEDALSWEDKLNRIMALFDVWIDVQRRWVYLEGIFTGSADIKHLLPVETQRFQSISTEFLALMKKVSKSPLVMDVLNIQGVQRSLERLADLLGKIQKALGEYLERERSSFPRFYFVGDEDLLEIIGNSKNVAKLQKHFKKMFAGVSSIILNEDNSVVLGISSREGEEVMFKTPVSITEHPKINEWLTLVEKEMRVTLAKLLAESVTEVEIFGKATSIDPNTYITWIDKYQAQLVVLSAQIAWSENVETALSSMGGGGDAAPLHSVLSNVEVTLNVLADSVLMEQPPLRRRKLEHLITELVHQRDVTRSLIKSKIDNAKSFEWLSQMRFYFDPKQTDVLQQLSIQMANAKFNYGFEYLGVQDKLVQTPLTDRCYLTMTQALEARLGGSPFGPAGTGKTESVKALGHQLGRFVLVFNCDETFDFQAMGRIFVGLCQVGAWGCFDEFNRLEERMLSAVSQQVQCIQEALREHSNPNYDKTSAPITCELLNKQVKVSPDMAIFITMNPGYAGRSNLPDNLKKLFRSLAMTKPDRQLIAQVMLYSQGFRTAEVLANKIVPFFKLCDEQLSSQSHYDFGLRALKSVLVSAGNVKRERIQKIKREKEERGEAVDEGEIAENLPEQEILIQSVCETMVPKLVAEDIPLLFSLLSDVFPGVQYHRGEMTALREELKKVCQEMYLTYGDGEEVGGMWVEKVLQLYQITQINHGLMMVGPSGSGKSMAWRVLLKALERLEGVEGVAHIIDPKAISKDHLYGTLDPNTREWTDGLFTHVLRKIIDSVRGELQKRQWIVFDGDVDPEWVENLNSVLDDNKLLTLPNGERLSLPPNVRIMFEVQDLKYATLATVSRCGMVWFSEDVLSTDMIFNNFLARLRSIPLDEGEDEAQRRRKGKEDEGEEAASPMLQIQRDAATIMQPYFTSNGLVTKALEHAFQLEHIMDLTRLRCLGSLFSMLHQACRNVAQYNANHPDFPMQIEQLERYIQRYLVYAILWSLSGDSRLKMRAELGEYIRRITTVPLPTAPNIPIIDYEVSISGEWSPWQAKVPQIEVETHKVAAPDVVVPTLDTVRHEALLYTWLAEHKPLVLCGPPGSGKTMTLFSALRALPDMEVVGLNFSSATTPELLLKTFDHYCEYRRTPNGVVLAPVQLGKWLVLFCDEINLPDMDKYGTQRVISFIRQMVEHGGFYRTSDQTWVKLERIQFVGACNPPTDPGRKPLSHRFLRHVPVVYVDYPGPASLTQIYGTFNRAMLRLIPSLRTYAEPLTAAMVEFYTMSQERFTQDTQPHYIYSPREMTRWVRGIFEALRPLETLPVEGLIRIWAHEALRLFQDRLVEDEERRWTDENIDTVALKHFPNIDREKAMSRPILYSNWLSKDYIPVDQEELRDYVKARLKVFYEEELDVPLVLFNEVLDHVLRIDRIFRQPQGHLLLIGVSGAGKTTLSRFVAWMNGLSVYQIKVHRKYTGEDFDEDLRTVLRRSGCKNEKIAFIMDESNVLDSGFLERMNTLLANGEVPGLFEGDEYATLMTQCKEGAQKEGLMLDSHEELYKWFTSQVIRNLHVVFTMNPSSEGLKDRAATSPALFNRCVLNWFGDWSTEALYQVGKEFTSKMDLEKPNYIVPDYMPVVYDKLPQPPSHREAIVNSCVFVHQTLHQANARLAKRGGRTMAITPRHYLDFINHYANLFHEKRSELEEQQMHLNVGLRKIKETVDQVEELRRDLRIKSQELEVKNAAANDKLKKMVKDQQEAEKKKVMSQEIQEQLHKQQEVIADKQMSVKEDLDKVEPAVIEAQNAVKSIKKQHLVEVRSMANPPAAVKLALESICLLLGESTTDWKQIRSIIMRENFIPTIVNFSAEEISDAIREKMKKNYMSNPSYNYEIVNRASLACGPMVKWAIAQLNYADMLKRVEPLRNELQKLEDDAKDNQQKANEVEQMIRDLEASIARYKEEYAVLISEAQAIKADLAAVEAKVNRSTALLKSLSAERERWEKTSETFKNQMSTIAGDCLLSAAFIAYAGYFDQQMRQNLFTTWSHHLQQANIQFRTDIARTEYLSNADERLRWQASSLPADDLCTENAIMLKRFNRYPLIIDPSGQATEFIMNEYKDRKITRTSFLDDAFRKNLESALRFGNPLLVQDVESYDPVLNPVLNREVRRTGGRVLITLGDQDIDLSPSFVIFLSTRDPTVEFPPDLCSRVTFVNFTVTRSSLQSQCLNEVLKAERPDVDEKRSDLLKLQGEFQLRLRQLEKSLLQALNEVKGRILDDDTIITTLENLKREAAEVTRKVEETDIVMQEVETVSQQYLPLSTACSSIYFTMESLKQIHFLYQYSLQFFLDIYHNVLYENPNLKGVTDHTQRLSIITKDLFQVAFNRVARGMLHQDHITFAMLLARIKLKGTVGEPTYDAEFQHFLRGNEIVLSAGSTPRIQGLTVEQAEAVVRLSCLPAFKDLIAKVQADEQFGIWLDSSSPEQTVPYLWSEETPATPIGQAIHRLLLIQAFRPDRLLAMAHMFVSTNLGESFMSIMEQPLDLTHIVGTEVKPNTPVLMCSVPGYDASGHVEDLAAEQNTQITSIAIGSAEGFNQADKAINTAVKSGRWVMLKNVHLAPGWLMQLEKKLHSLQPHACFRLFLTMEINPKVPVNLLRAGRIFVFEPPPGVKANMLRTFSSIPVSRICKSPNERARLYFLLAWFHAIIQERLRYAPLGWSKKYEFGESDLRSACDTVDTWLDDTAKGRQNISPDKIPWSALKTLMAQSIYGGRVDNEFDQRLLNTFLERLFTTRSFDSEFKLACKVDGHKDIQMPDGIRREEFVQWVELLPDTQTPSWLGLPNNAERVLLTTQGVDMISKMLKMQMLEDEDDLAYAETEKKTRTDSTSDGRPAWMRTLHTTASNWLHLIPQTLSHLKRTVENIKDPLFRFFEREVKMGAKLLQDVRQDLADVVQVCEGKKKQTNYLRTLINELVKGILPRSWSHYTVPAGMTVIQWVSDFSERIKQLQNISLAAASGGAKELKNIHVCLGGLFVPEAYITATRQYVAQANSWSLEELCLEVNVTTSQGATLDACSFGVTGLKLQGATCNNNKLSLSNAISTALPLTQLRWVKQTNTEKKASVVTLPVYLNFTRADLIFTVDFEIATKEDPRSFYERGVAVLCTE

SMILES	Inhibition of basal ATPase activity of GFP-dynein 1 [1]	Plateau of microtubule-stimulated ATPase activity at increasing compound concentrations ([2]; 2.5 µM microtubules)	IC50 ([2]; 2.5 µM microtubules, fit to non-zero plateau, read-out: IC50, inhibition of microtubule-stimulated His-dynein 1 ATPase activity) [µM]	Residual rate of microtubule-stimulated ATPase activity ([2]; 30 µM compound, 8 or 15 µM microtubules)	Concentration at which cell death was observed [3] [µM]	IC50 [3] [µM]	Potency relative to ciliobrevin D, Hedgehog-driven luciferase reporter ([3]; more potent than ciliobrevin D)	inhibition at 40 µM [4] [%]	inhibition at 40 µM [1] [%]
N#Cc1c(C2(c3ccc(Cl)cc3)CC2)nn2c1[nH]c(=O)c1cc(I)ccc12 [Compound 8, 2-[1-(4-chlorophenyl)cyclopropyl]-7-iodo-5-oxo-4H-pyrazolo[1,5-a]quinazoline-3-carbonitrile]	did not inhibit	~ 0.5 s^−1	6.2 ± 1.6	~ 0.5 s^−1	20	1.9 ± 0.6	~ 8 fold	~30	
N#C/C(C(=O)c1ccc(Cl)cc1Cl)=C1\NC(=O)c2ccc(Cl)cc2N1 [ciliobrevin D, reference compound]		did not reveal a plateau			200	15.5 ± 3		~70	~70
